Measured values: US20260053811A1, “METHODS OF TREATING HYPERTENSION IN OBESE SUBJECTS” (Mineralys Therapeutics, Inc., priority 2022, published 2026)
Marks after values point to notes of the source that are not given here.

Tested on: hypertensive subjects
Assay: Seated automated office blood pressure (AOBP) in randomized, placebo-controlled, dose-ranging study
Type: in vivo, human
Design: Difference from placebo in change in blood pressure: unit not given here
Conditions: for Modelled (ANCOVA) LSM (SEM) change from baseline, seated AOBP SBP / LSM Δ with PRA Baseline <1 ng/mL/h, seated AOBP SBP (ANCOVA): 100 mg QD Parts 1 & 2
Protocol: A randomized, double-blinded, placebo-controlled, dose-ranging, multicenter study was conducted to evaluate the effect of orally administered Compound A HBr on blood pressure for the treatment of hypertension in male and female subjects ≥18 years of age.
The study consists of two parts. For enrollment into Part 1 of the study, a subject's value of plasma renin activity (PRA) must be ≤1 ng/mL/h based on morning measurement. If the value of PRA >1 ng/mL/h based on morning measurement, then subjects may be eligible to enter Part 2 of the study.
For Part 1, 163 enrolled subjects ≥18 years of age were randomized into 6 equal treatment groups (1:1:1:1:1:1) to 12.5 mg BID, 25 mg BID, 12.5 mg QD, 50 mg QD, 100 mg QD, or placebo. After a review of interim clinical data, the 2 lowest dose levels (12.5 mg QD and 12.5 mg BID) were stopped for future randomization due to a lack of consistent meaningful reduction of blood pressure, but the patients randomized to that point remained in the study through completion. Thus, after the review of interim clinical data, subjects were randomized into 4 equal treatment groups (1:1:1:1) to 25 mg BID, 50 mg QD, 100 mg QD, or placebo.
For Part 2, 36 enrolled subjects ≥18 years of age were randomized (5:1) to either 100 mg QD Compound A HBr or placebo such that the Compound A HBr treatment group consisted of approximately 30 subjects and the placebo treatment group will consist of approximately 6 subjects.
Subjects orally administered the assigned study drug (Compound A HBr or placebo) according to the assigned dosing regimen for 8 weeks beginning on Study Day 1. All subjects in Part 1 (regardless of dosing group) received BID dosing to preserve the integrity of the blind; active drug is administered as the morning dose for all QD dose groups. Subjects returned to the research facility or were seen by the clinical investigator or approved home health care professional at the end of Study Weeks 1, 2, 3, 4, 5, 6, 7, and 8 (±2 days) for protocol-defined efficacy and safety assessments and procedures, assessment of adverse events (AEs), and confirmation of compliance with study drug usage. Subjects also completed a telephone visit and blood pressure (BP) check at home approximately 3 days post last dose of study drug. Subjects attended up to 14 full clinic visits, including a pre-Screening visit, a Screening/start of Placebo Run-in visit, a second visit during Placebo Run-in, a clinic visit to initiate the ABPM procedure, a Randomization visit, 8 weekly visits during double-blind treatment, and an end-of-study visit scheduled 4 weeks after the last study treatment for final efficacy and safety assessments.
An automated oscillometric sphygmomanometer device was used to measure the subjects' systolic and diastolic blood pressure in office after approximately 5 minutes of rest in the seated position.
The primary endpoint is the change in office-measured (mean of last 2 of 5 unattended measurements using an automated oscillometric sphygmomanometer device after approximately 5 minutes of rest in the seated position) systolic blood pressure (SBP) from baseline to the end of Study Week 8.
Secondary endpoints of this study were: • (a) Change in 24-hour ambulatory blood pressure monitoring (ABPM) parameters (systolic and diastolic) from baseline to the end of Study Week 7. • (b) Change in office-measured SBP from baseline to the end of Study Weeks 1, 2, 3, 4, 5, 6, and 7. • (c) Change in office-measured diastolic blood pressure (DBP) from baseline to the end of Study Weeks 1, 2, 3, 4, 5, 6, 7, and 8. • (d) Proportion of subjects who achieve office-measured BP of ≤130/80 mm Hg by the end of Study Week 8.

[1] = 100 mg QD Part 2, Week 8, Parts 1 & 2 model, FAS
[2] = PRA Baseline >=1 ng/mL/h, Week 4, FAS
[3] = PRA Baseline >=1 ng/mL/h, Week 8, FAS

Q: For `CC(=O)N[C@H]1CC[C@H](NC(=O)CN2CCN(c3nncc(-c4ccc(C)cc4)n3)CC2)CC1` [Compound A HBr], which “LSM Δ with Placebo, change from baseline in seated AOBP SBP (MMRM)” value (100 mg QD Part 2 (vs 100 mg QD Part 1 per text), Week 8, FAS) is on record?
A: The value was 0.74 mmHg.

Q: What about the “LSM Δ with 100 mg QD Part 1, seated AOBP DBP (MMRM)” value (100 mg QD Part 2, Week 4, FAS) of the same molecule?
A: Its value is −0.43 mmHg.

Q: What about the “Modelled (MMRM) LSM (SEM) change from baseline, seated AOBP DBP” value (100 mg QD Part 2, Week 4, Parts 1 & 2 model, FAS) of the same molecule?
A: Its value is −6.30 (1.44) mmHg.

Q: What about the “Modelled (MMRM) LSM (SEM) change from baseline, seated AOBP DBP” value [1] of the same molecule?
A: The value was −5.55 (1.42) mmHg.

Q: And the “Modelled (MMRM) LSM (SEM) change from baseline, seated AOBP SBP” value [1]?
A: Its value is −11.35 (2.48) mmHg.

Q: What about the “Modelled (ANCOVA) LSM (SEM) change from baseline, seated AOBP SBP” value (“Modelled (ANCOVA) LSM (SEM) change” below) (PRA Baseline <1 ng/mL/h, Week 4, FAS) of the same molecule?
A: The value was −15.42 (3.12) mmHg.

Q: What about the “Modelled (ANCOVA) LSM (SEM) change” value (PRA Baseline <1 ng/mL/h, Week 8, FAS) of the same molecule?
A: The value was −11.27 (3.13) mmHg.

Q: What about the “LSM Δ with PRA Baseline <1 ng/mL/h, seated AOBP SBP (ANCOVA)” value [2] of the same molecule?
A: The value was 0.18 mmHg.

Q: And the “Modelled (ANCOVA) LSM (SEM) change” value [2]?
A: Its value is −15.24 (2.75) mmHg.

Q: And the “LSM Δ with PRA Baseline <1 ng/mL/h, seated AOBP SBP (ANCOVA)” value [3]?
A: Its value is −2.07 mmHg.

Q: And the “Modelled (ANCOVA) LSM (SEM) change” value [3]?
A: The value was −13.34 (2.52) mmHg.

Q: And the “Difference from placebo in change in blood pressure” value (“Difference from placebo in change” below) (100 mg QD, BMI 25-30)?
A: Its value is −2.6.

Q: And the “Difference from placebo in change” value (100 mg QD, BMI >30)?
A: The value was −13.2*.

Q: What about the “Mean placebo-adjusted reduction in AOBP SBP” value (100 mg QD, Part 1, Week 8) of the same molecule?
A: The value was 7.81 mmHg.

Q: And the “Proportion of subjects with AOBP ≤130/80 mmHg” value (100 mg QD, Part 1, Week 8)?
A: The value was 30%.

Q: What about the “Proportion of subjects with AOBP ≤130/80 mmHg” value (100 mg QD, Part 2, Week 8) of the same molecule?
A: The value was 54.8%.

Q: What about the “Mean reduction in AOBP systolic BP, placebo-corrected, Full-analysis set” value (100 mg QD, Part-1 and Part-2 (interim) combined, N=58 active) of the same molecule?
A: Its value is −9.9 mmHg.

Q: And the “Difference from placebo in change” value (100 mg QD, Thiazide No)?
A: The value was −3.3.

Q: What about the “Difference from placebo in change” value (100 mg QD, Thiazide Yes) of the same molecule?
A: Its value is −11.4*.

Q: And the “Seated AOBP DBP change from baseline (CFB), Mean (SD)” value (from here on “Seated AOBP DBP change … (SD)”) (100 mg QD, Week 1, Part 1, FAS)?
A: Its value is 0.98 (8.29) mmHg.

Q: What about the “Seated AOBP DBP, Mean (SD)” value (100 mg QD, Week 1, Part 1, FAS) of the same molecule?
A: The value was 79.70 (11.07) mmHg.

Q: What about the “Seated AOBP SBP change from baseline (CFB), Mean (SD)” value (from here on “Seated AOBP SBP change … (SD)”) (100 mg QD, Week 1, Part 1, FAS) of the same molecule?
A: Its value is 0.06 (12.66) mmHg.

Q: And the “Seated AOBP SBP, Mean (SD)” value (100 mg QD, Week 1, Part 1, FAS)?
A: Its value is 144.41 (14.54) mmHg.

Q: What about the “Seated AOBP DBP change from baseline (CFB), Mean” value (100 mg QD, Week 1, Part 2, FAS) of the same molecule?
A: The value was −5.85 mmHg.

Q: And the “Seated AOBP DBP, Mean” value (100 mg QD, Week 1, Part 2, FAS)?
A: Its value is 72.19 mmHg.

Q: What about the “Seated AOBP SBP change from baseline (CFB), Mean” value (100 mg QD, Week 1, Part 2, FAS) of the same molecule?
A: Its value is −11.35 mmHg.

Q: And the “Seated AOBP SBP, Mean” value (100 mg QD, Week 1, Part 2, FAS)?
A: Its value is 129.00 mmHg.

Q: And the “Seated AOBP DBP change … (SD)” value (100 mg QD, Week 2, Part 1, FAS)?
A: Its value is −2.14 (9.60) mmHg.

Q: And the “Seated AOBP DBP, Mean (SD)” value (100 mg QD, Week 2, Part 1, FAS)?
A: Its value is 76.36 (11.90) mmHg.

Q: And the “Seated AOBP SBP change … (SD)” value (100 mg QD, Week 2, Part 1, FAS)?
A: Its value is −5.64 (16.38) mmHg.

Q: And the “Seated AOBP SBP, Mean (SD)” value (100 mg QD, Week 2, Part 1, FAS)?
A: Its value is 139.04 (18.22) mmHg.

Q: And the “Seated AOBP DBP change from baseline (CFB), Mean” value (100 mg QD, Week 2, Part 2, FAS)?
A: Its value is −5.13 mmHg.

Q: What about the “Seated AOBP DBP, Mean” value (100 mg QD, Week 2, Part 2, FAS) of the same molecule?
A: Its value is 73.10 mmHg.

Q: What about the “Seated AOBP SBP change from baseline (CFB), Mean” value (100 mg QD, Week 2, Part 2, FAS) of the same molecule?
A: The value was −8.80 mmHg.

Q: And the “Seated AOBP SBP, Mean” value (100 mg QD, Week 2, Part 2, FAS)?
A: The value was 131.33 mmHg.

Q: What about the “Seated AOBP DBP change … (SD)” value (100 mg QD, Week 3, Part 1, FAS) of the same molecule?
A: Its value is −5.48 (9.36) mmHg.

Q: What about the “Seated AOBP DBP, Mean (SD)” value (100 mg QD, Week 3, Part 1, FAS) of the same molecule?
A: Its value is 72.84 (10.83) mmHg.

Q: And the “Seated AOBP SBP change … (SD)” value (100 mg QD, Week 3, Part 1, FAS)?
A: The value was −9.20 (11.37) mmHg.

Q: And the “Seated AOBP SBP, Mean (SD)” value (100 mg QD, Week 3, Part 1, FAS)?
A: Its value is 136.56 (14.68) mmHg.

Q: What about the “Seated AOBP DBP change from baseline (CFB), Mean” value (100 mg QD, Week 3, Part 2, FAS) of the same molecule?
A: The value was −4.76 mmHg.

Q: And the “Seated AOBP DBP, Mean” value (100 mg QD, Week 3, Part 2, FAS)?
A: Its value is 73.72 mmHg.

Q: What about the “Seated AOBP SBP change from baseline (CFB), Mean” value (100 mg QD, Week 3, Part 2, FAS) of the same molecule?
A: The value was −8.76 mmHg.

Q: And the “Seated AOBP SBP, Mean” value (100 mg QD, Week 3, Part 2, FAS)?
A: Its value is 131.52 mmHg.

Q: And the “LSM Δ with Placebo, seated AOBP DBP (MMRM)” value (100 mg QD, Week 4, Part 1, FAS)?
A: The value was −6.42 mmHg.

Q: And the “Modelled (MMRM) LSM (SEM) change from baseline, seated AOBP DBP” value (100 mg QD, Week 4, Part 1, FAS)?
A: The value was −6.96 (1.48) mmHg.
